The values below come from patent US20250352444A1, “Antimicrobial mixtures” (Symrise AG, priority 2022, published 2025).

Where two headings read alike, the source gives them in different places.

Experiment [1] has as its system Prevotella intermedia (DSM 20706, ATCC25611). The experiment can be described thus: Minimum inhibitory concentration (MIC), DIN 58940-8 micro dilution method. Type of experiment: cell-based. As to conditions: for MIC: Prevotella intermedia. The method, then:
(§1) MIC data were evaluated based on DIN 58940-8 micro dilution method. For the experiments three relevant bacteria occurring in the oral biofilm were selected: Streptococcus mutans (DSM 20523, ATCC 25175), Porphyromonas gingivalis (DSM 20709, ATCC33277), and Prevotella intermedia (DSM 20706, ATCC25611).
(§2) All test organisms were cultivated in suitable complex medium and under anaerobic and/or microaerophilic conditions. Every test substance was applied as technical triplicate on a 96-microtiter plate in a total volume of 300 μL per well. The inoculum was directly transferred from a glycerin stock solution or from a freshly prepared preculture. Therefore 15 mL reagent tubes were filled with specific complex growth medium and inoculated with skim milk stocks of single strains. The incubation was done at 37° C. up to 48 h until an OD620>0.1-1.0. Suspensions were controlled microscopically. In both cases the bacteria were transferred and diluted to fresh complex medium on a 96 well plate.
(§3) Test substances were either the pure materials or mixtures. The mixtures contain a cooling compound and an aroma component according to claims. Further these effective building blocks can be included in an aroma composition. Therefore, nature identical (synthetic) bases (base nature identical A/B) and/or natural basic formulations (base natural A/B) can be added.
(§4) The mixtures contained either Carvacrol (synthetic material) or the natural oregano oil with a typical Carvacrol content in the range of 50-80%.
(§5) Test substances were 100-fold solved in dimethyl sulfoxide (DMSO) and diluted directly on the 96 well plate. As […] farnesol and/or triclosan were applied in appropriate concentrations from 1 to 100 ppm. An untreated medium control was applied as growth control. The incubation of the test plates was done for 16-24 h at 37° C. At the end of the experiment, growth was determined photometrically by detecting OD620 values using Sunrise Photometer (TECAN, Austria). Mean values of triplicates were calculated and normalized with blank values (growth medium with or without test substances). The growths of treated wells were evaluated in relation to the growth control. Minimum inhibition concentrations (MIC) were defined as minimal concentration (in ppm) that causes a complete inhibition of bacterial growth.
(§6) Synergies were calculated using the following formula. The formula can be modified according to the number of components per mixture. MIC stands for minimum inhibitory concentration with the dimension of parts per million [ppm].
(§7) [formula] • MICmix=MIC value of mixture [ppm] • PA=Percentage of component A [%] • MIC A=MIC value of component A [ppm] • PB=Percentage of component B [%] • MIC B=MIC value of component B [ppm] A synergism is given if the resulting value is below 1.

Experiment [2] relates to Porphyromonas gingivalis (DSM 20709, ATCC33277). The description is as above. In kind it is cell-based. As to conditions: for MIC: Porphyromonas gingivalis. The method, then: as §1, §2, §3, §4, §5, §6, §7
For experiment [3], the system named is Streptococcus mutans (DSM 20523, ATCC 25175). Described as above. In kind it is cell-based. As to conditions: for MIC: Streptococcus mutans. How it is done:
as §1, §2, §3, §4, §5, §6, §7

The next experiment deals with oral biofilm. In words: Ex vivo biofilm model (Calgary Biofilm Device, FDA hydrolysis). As to conditions: compared to untreated control biofilm (100%); treatment 4 times within 2 days for 2 min at 37° C. In kind it is cell-based, human. How it is done:
The experiment was developed following the method described in WO2018/033211 and Kistler et al (Kistler et al. 2015).
Up to 50 subjects were recruited for saliva donation. Participants were between 18 and 65 years old and medically healthy. Subjects who had taken antibiotics, ate antimicrobial food such as garlic within last 24 h and/or had suffer from any systemic conditions that may affected their immune or inflammatory status, were excluded from the study. Fresh morning saliva from all donors were selected and pooled. All volunteers were asked to refrain from drinking, eating, or brushing their teeth bevor donating by expectoration into sterile universal tubes.
The Calgary Biofilm Device (CBD) was originally developed for medical usage. It is commercially available as MBEC (Minimum Biofilm Eradication Concentration) Biofilm Inoculator and it is suitable as a basis for biofilm research (Kistler et al. 2015; Ceri et al. 1999). […]
Stock solutions of all test substances were prepared in dimethylsulfoxide (DMSO). […] At the end the pegs were washed again, and microbial activity was quantified photometrically by fluorescein diacetate (FDA) hydrolysis. FDA is converted into fluorescein by protease, lipase, and esterase activities in the biofilm, thus the quantification of fluorescein represents the activity of the biofilm.

The mark [4] stands for this setting: S. mutans, component alone, read-out: MIC B (MIC value of component B).
[5] abbreviates: read-out: MIC A (MIC value of component A).

For the compound `CC(C)[C@@H]1CC[C@@H](C)C[C@H]1OC(=O)[C@@H](C)O` (stereo in doubt) [Menthyl lactate], the MIC (as a rule, the least concentration at which growth counts as inhibited) in experiment [1] (P. intermedia, component alone, read-out: MIC B (MIC value of component B)) was determined as 125 µg/mL; in experiment [2] (P. gingivalis, component alone, read-out: MIC B (MIC value of component B)), 125 µg/mL; in experiment [3] (setting [4]) it was 250 µg/mL.
For the compound `CC(C)[C@@H]1CC[C@@H](C)C[C@H]1OCC(O)CO` (stereo partly drawn) [3-(−)-Menthoxy)propane-1,2-diol], in experiment [3] (setting [4]), the MIC was 500 µg/mL.
As for `Cc1ccc(C(C)C)cc1O` [Carvacrol], the MIC in experiment [1] (setting [5]), in experiment [2] (setting [5]) and in experiment [3] (setting [5]) was 250 µg/mL throughout. For the same compound, the “relative biofilm activity after treatment (FIG. 1)” value in the experiment on oral biofilm is given as “concentration dependent oral biofilm reduction”.
`CC1CCC(C(C)C)C2(C1)OCC(CO)O2` [D,L-Menthone glyceryl ketal]: the “MIC B (MIC value of component B)” value turned out to be 250 ppm in experiment [1] (P. intermedia, component alone); 250 ppm in experiment [2] (P. gingivalis, component alone); 500 ppm in experiment [3] (S. mutans, component alone).
On to `CC(O)COC(=O)O[C@@H]1C[C@H](C)CC[C@H]1C(C)C` (stereo partly shown) [Menthyl propylene glycol carbonate], for which the “MIC B (MIC value of component B)” value in experiment [3] (S. mutans, component alone) came to 125 ppm.
As to (−)-Menthyl propylene glycol carbonate, the “MIC B (MIC value of component B)” value in experiment [2] (P. gingivalis, component alone) came to 125 ppm.
